From a melting point compilation (Tetko et al.; mined from patent text by program, amines drawn as free bases though some values may be those of a salt) come the findings set out here.

In the case of `COc1ccc(C2=NN(c3ccc(OCc4ccccc4)cc3)C(=O)[C@@H]3CC=CC[C@H]23)cc1OC`, the melting point fell in the range of 104 to 105 °C.

In turn, `CCCCCCCCCCCCCCCCCCOC(=O)C(N)Cc1ccc(O)cc1` (stereo not drawn) showed a melting point of 80 to 83 °C.

`CN(C)C(=O)N(Cc1ccccc1)C(=O)c1cccc(-c2nc(=O)c3ccccc3s2)n1` displayed a melting point of 222 to 224 °C.

As to `CC(C)(C)c1cc(-c2nn(CC(F)(F)F)c3ncccc23)cc(C(C)(C)C)c1O`, the melting point lay within 104 to 106 °C.

Molecule `CCCCCCCN(CCCCCSc1nc2cc(C)ccc2[nH]1)C(=O)Nc1ccc(F)cc1F` returned a melting point of 70 to 72 °C.

With `COC(=O)CC1Sc2ccc([N+](=O)[O-])cc2CN(CCc2ccccc2)C1=O` (stereo not drawn), the melting point was 205 to 208 °C.

`CN1CCN(C2=Nc3ccccc3N3CCCc4cccc2c43)CC1` gave a melting point of 129 to 132 °C.

The molecule `CCOC(=O)C1=COc2cc(C(C)(C)C)c(OC(C)=O)cc2O1` yielded a melting point of 144 °C.

Molecule `COc1cc(F)c(C(=O)Oc2ccc(C(=O)O)cc2)cc1C12CC3CC(CC(C3)C1)C2` had a melting point of 268 to 270 °C.

`COc1ccc(C2(c3ccc(OC)cc3)CC2(C)Br)cc1` (stereo not drawn) displayed a melting point of 97 to 104 °C.

On to `COC(=O)CCCC#Cc1cc(Cl)ccc1NS(=O)(=O)c1ccc2nc(C)sc2c1`, for which the melting point fell in the range of 103 to 106 °C.

Consider `COC(=O)c1ccc(CSCC(=O)[C@H](Cc2ccccc2)NC(=O)[C@H](CC(C)C)NC(=O)OCc2ccccc2)o1`, for which the melting point lay within 85 to 93 °C.

The molecule `OCc1cnoc1-c1ccc(F)c(Br)c1` showed a melting point of 134 to 135 °C.

Molecule `Cc1c(C)c2c(c(C)c1O)SC(C)(C)O2` gave a melting point of 62 to 64.5 °C.

In turn, `COc1cc2ncnc(N3CCCc4ccccc43)c2cc1OC` yielded a melting point of 130 to 131 °C.

On to `CCOCC(=O)OC1(C(=O)CO)CCC2C3CCC4=CC(=O)CCC4(C)C3C(O)CC21C` (stereo not drawn), for which the melting point is 161 °C.

Consider `Cc1noc(NS(=O)(=O)c2ccc(Br)cc2)c1Br`, for which the melting point was 146 to 149 °C.

Take `O=[N+]([O-])c1cnn(-c2c(Cl)cc(C(F)(F)F)c(Cl)c2Cl)c1Br`: the melting point is 97 to 99 °C.

`CC1CC2C3CCC4=CC(=O)CCC4=C3CCC2(C)C1O` (stereo not drawn) showed a melting point of 146 to 148 °C.

`CCCCCCC(=O)C=Cc1ccc(OC(C)=O)c(OC(C)=O)c1` yielded a melting point of 71 to 72 °C.

`CCN(CC)CCN1C(=O)c2ccc(NC(C)=O)cc2Oc2cc(C(F)(F)F)ccc21` showed a melting point of 75 to 85 °C.

In turn, `CCOc1cc(C=O)cc2c1OC(C)(C)C2` showed a melting point of 33 to 36 °C.

Turning to `COc1ccc2[nH]c(C(C)C)c(C=O)c2c1`, the melting point lay within 181 to 183 °C.

The molecule `CNC(=O)CN(CCN(CCN(CC(=O)O)CC(=O)NC)CC(=O)O)CC(=O)O` displayed a melting point of 78 to 82 °C.

`NN(c1ccccc1)C1CCS(=O)(=O)C1` (stereo not drawn) had a melting point of 120 to 121 °C.

`CCN1C(=O)C(C)(C)C(=O)N(C)c2cc(OCCCN3C(=O)Cc4ccccc43)ccc21` came in with a melting point of 146 to 149 °C.

As for `CC(C)(OC(=O)Cc1cccc(F)c1)C(=O)c1ccc(S(C)(=O)=O)cc1`, the melting point is 173 °C.

Regarding `Cc1[nH]cnc1C=CC(=O)c1cn2c3c(cccc13)CCC2`, the melting point lay within 108 to 110 °C.

Consider `Nc1ncc(CCN2CCN(c3ccccc3)CC2)s1`, for which the melting point is 185 to 189 °C.

With `Cc1ccc2c(c1)c1c(n2C(=O)c2ccc(Cl)cc2)CCC(C(=O)O)C1` (stereo not drawn), the melting point was 211 to 214 °C.

The molecule `CCCn1cc(C(=O)O)c(=O)c2cc(C)sc21` returned a melting point of 207 to 208 °C.

In the case of `OC(=S)CCc1ccc(Cl)c(Cl)c1`, the melting point lay in the range of 63 to 64 °C.

Molecule `FC(F)(F)c1ccc(-c2ccnc(Nc3cnc4ccccc4c3)c2)cc1` had a melting point of 207 to 208 °C.

Take `CCOC(C(=O)O)N1CCN2c3ccccc3Cc3ccccc3C2C1` (stereo not drawn): the melting point was in the range of 105 to 108 °C.

In the case of `C[C@]1(N2C(=O)c3cccc(Nc4ccc5c(c4)CCC5)c3C2=O)CCC(=O)NC1=O`, the melting point was 200 to 202 °C.

`COc1cccc(NC(=O)/C=C(\C)c2cc3cccc(OCCCC(=O)O)c3o2)c1` yielded a melting point of 156 to 158 °C.

On to `CCOC(=O)NNc1ccc(-c2cccc(C(F)(F)F)c2)nn1`, for which the melting point is 168 to 170 °C.

`CC1CC(=O)NN=C1c1ccc(NC(=O)CCNCC(O)C(Cc2ccccc2)Oc2ccc(CCOCC3CC3)cc2)cc1` (stereo not drawn) came in with a melting point of 125 to 128 °C.

`O=C(CCCCl)c1ccc2ccccc2c1` had a melting point of 43 to 44 °C.

For `COc1ccc2c(c1)C(CCC(C)C)(C(F)(F)F)OCC(=O)N2` (stereo not drawn), the melting point lay within 123 to 130 °C.

`O=C(N(Cc1ccccc1)Cc1cccs1)C12CC3CC(CC(C3)C1)C2`: the melting point fell in the range of 130 to 132 °C.

In turn, `O=c1nc(-c2cc(-c3ccccc3)ccn2)sc2ccccc12` showed a melting point of 164 to 165 °C.

Turning to `CCOP(=O)(Cc1ccc(NC(=O)C2=Cc3cc(C4CCCCC4)ccc3CC2)cc1)OCC`, the melting point is 137 to 138 °C.

Molecule `O=C(O)c1cc([N+](=O)[O-])cc(Br)n1` returned a melting point of 172 to 173 °C.

For `CCCOc1nc(N)c2ncn(C3CCCCO3)c2n1` (stereo not drawn), the melting point fell in the range of 138 to 140 °C.

`COc1c(C)cc2[nH]c(S(=O)Cc3nccc(C)c3C)nc2c1C` (stereo not drawn) showed a melting point of 161 °C.

As for `CCCCCCCCCCN(C[C@H]1CC[C@H](CN(CCCCCCCCCC)C(=O)Nc2ccc(N(C)C)cc2)CC1)C(=O)Nc1ccc(N(C)C)cc1`, the melting point is 125 to 127 °C.

As to `CSc1nnc(-c2cccs2)n1C`, the melting point lay within 83 to 85 °C.

In turn, `COC(=O)NC=Cc1ccc(OCC(O)CNC(C)CC#N)cc1` (stereo not drawn) displayed a melting point of 122 to 123 °C.

In turn, `C[Si](C)(C)CCCCNC(=O)n1cc(F)c(=O)[nH]c1=O` yielded a melting point of 129 to 132 °C.

For `CC(C)C(=O)N1CCC(c2nc3cc(-c4ccc(-n5cnnn5)cc4F)ccc3o2)CC1`, the melting point lay within 190 to 194 °C.

As for `C[C@@H]1CN(CC=CC(=O)Nc2cc3c(Nc4ccc(F)c(Cl)c4)ncnc3cc2O[C@@H]2CCOC2)CC(=O)O1`, the melting point stood at 230 °C.

The molecule `C#CCOc1ccc2c(c1)c(-c1ccc(C3CC3)cc1)nc(=O)n2Cc1ccccc1` yielded a melting point of 112 to 113 °C.

In the case of `CCCCCCCCCCCCCCCCCCSC(C)(C)C(=O)CC(=O)OCC`, the melting point is 34 to 37 °C.

In the case of `FC(F)(F)COc1cccc(-c2ccc3nnn(Cc4ccc5ncccc5c4)c3n2)c1`, the melting point lay in the range of 151 to 154 °C.

In turn, `Cc1oc(-c2ccc(Cl)cc2)nc1CO` displayed a melting point of 130 to 131 °C.

Molecule `COc1cc(F)cc(-c2ccc3c(c2)C(C)(C)OC(=O)N3)c1` displayed a melting point of 181 to 182 °C.

On to `c1ccc(COc2ccc(Cc3nnc(Nc4ccc5c(c4)ncn5-c4ccccc4)c4ccccc34)cc2)cc1`, for which the melting point lay within 229 to 231 °C.

Molecule `Cc1ccc(S(=O)(=O)c2ccc3c(c2)c(CCNC(=O)OC(C)(C)C)cn3C)cc1` returned a melting point of 144 to 148 °C.

In the case of `CCc1nc2c(N)nc3cccnc3c2n1NCCCNS(C)(=O)=O`, the melting point is 176 to 178 °C.

`CS(=O)(=O)Nc1cc2occc(=O)c2cc1O`: the melting point was above 250 °C.

`COCC1CC(=O)c2nc(C)c(C)n2C1` (stereo not drawn) had a melting point of 103 to 104 °C.

In turn, `CCCC1Sc2nncn2N=C1c1ccc2c(c1)NC(=O)CO2` (stereo not drawn) displayed a melting point of 235 to 237 °C.

A word on the melting point: it is the temperature, or range, at which the solid turns liquid.
